Source: patent US20110184178A1, “POLYMORPHS OF 5-(3-(ETHYLSULFONYL)PHENYL)-3,8-DIMETHYL-N-(1-METHYLPIPERIDIN-4-YL)-9H-PYRIDO[2,3-B]INDOLE-7-CARBOXAMIDE AND METHODS OF USE THEREFOR” (Takeda Pharmaceutical Company Limited, priority 2008, published 2011)
Like-named read-outs stand apart in the source and are kept apart here.

Tests used:
Assay type in all cases: physicochemical
[1] = DSC heat-cool experiments with isothermal holds to isolate high-melt forms
Procedure: Differential scanning calorimetry (DSC) analyses were carried out on samples weighed in an aluminum pan, covered with a pierced lid, and then crimped. Analysis conditions were 30° C. to 300-350° C. ramped at 10° C./min. Samples were subjected to heat-cool-heat experiments to determine if a unique form or interconversion could be observed. Compound I was prepared by thoroughly mixing Form A lots with stirring by spatula and tumbling the powders for several minutes in a scintillation vial. Experiments were setup as described in Tables 17 and 18 with isothermal holds for five minutes at temperatures slightly below/above the observed transitions to encourage conversion/ripening. Similarly, controlled cooling profiles (−5° C./min) were used to help promote crystal growth as opposed to quench cooling which may result in amorphous or kinetically favored forms instead of the stable form.

[2] = Moisture-sorption analysis (gravimetric adsorption/desorption, 25° C.)
Procedure: Further, the material gained enough water to form the dihydrate in approximately 45 minutes at 30% RH during adsorption and lost enough water to form the anhydrate at 15% RH during desorption in less than 60 minutes. […] The sample was further allowed to equilibrate at ambient laboratory conditions overnight and reanalyzed by XRPD. […] The moisture sorption experiment of Form C of Compound I provides a curve similar to the Form A curve (FIG. 11). […] Further, the material gained enough water to form the dihydrate in less than 60 minutes at 30% RH during adsorption and lost enough water to form the anhydrate at 15% RH during desorption in approximately 80 minutes. […] Moisture-sorption experiments were carried out on all samples by first drying the sample at 0% RH and 25° C. until an equilibrium weight was reached or for a maximum of four hours. The sample was then subjected to an isothermal (25° C.) adsorption scan from 10 to 90% RH in steps of 10%. Samples were then allowed to equilibrate to an asymptotic weight at each point for a maximum of four hours. Following adsorption, a desorption scan from 85 to 0% RH (at 25° C.) was run in steps of −10% again allowing a maximum of four hours for equilibration to an asymptotic weight. Samples were dried for one hour at 80° C. and the resulting solids analyzed by XRPD.

[3] = Solubility study of Form A in de-ionized water and 20 mM phosphate buffer at pH 3.2 (HPLC, XRPD of solids); conditions: for solubility at 1 week: ambient temperature, read-out: Solubility mg/mL (1 week); for solubility at 1 day: read-out: Solubility mg/mL (1 day)
Procedure: Solubility was determined for Form A of Compound I by suspending the material in de-ionized water and 20 mM phosphate buffer at pH 3.2 and ambient temperature. Approximately 40 mg of Form A of Compound I was charged to 2-dram amber vials equipped with magnetic stir bars, followed by the addition of DI water or phosphate buffer (2.0 mL) in one portion. The samples were allowed to equilibrate with stirring for 16 h, followed by centrifugation. An aliquot of the supernatant liquid was analyzed by HPLC, and the solids isolated by filtration and dried under vacuum at ambient temperature for analysis by XRPD. Samples were allowed to stir for an additional 6 days and concentration determined by HPLC.

[4] = Slurry experiments (form by XRPD after slurrying in a solvent); conditions: Form A in dioxane slurry
Procedure: 50 to 60 mg of Form A of Compound I was weighed out into 2 dram amber vials and the material was slurried in 2 mL of a solvent. The slurry experiments were carried out at either ambient temperature or at 40° C. Samples were obtained from slurries after one day, one week, and two weeks. Tables 15 and 16 detail the results of the slurry experiments.

[5] = Humidity chamber study of Form A (XRPD, Karl Fischer); conditions: ambient temperature and 0% RH for one week
From the text: A sample of Form A was exposed to ambient temperature and 0% RH for one week.

[6] = Physical characterization of the polymorphs and salt (XRPD, DSC, TGA, 1H-NMR, KF, moisture sorption): stability assessment; conditions: solid form
Procedure: Described herein are Form A, Form B, Form C, Form D, Form E, Form F and Form G of Compound I. Various tests were performed in order to physically characterize the polymorphs of Compound I, including X-ray powder diffraction (XRPD), differential scanning calorimetry (DSC), thermogravimetric analysis (TGA), solution proton nuclear magnetic resonance (^1H-NMR), and moisture sorption and desorption analysis (M S/Des). Detailed experimental conditions for each of the analytical techniques are described in the Examples section. […] A summary of these experiments and the results are presented below and in Table 12.

[7] = 30-280° C. @ 10° C./min, hold 280° C. for 5 min, 280-30° C. @ -5° C./min
[8] = 30-290° C. @ 10° C./min, hold 290° C. for 5 min, 290-30° C. @ -5° C./min
[9] = solids isolated from DI water suspension
[10] = solids isolated from phosphate buffer suspension, pH 3.2

**Q.** For `CCS(=O)(=O)c1cccc(-c2cc(C(=O)NC3CCN(C)CC3)c(C)c3[nH]c4ncc(C)cc4c23)c1` [Compound I Form A, 5-(3-(ethylsulfonyl)phenyl)-3,8-dimethyl-N-(1-methylpiperidin-4-yl)-9H-pyrido[2,3-b]indole-7-carboxamide], which “1H NMR (degradation)” value [1, 7] is on record?
**A.** No degradation

**Q.** What about the XRPD [1, 7] of the same compound?
**A.** Form F

**Q.** What about the “1H NMR (degradation)” value [1, 8] of the same compound?
**A.** No degradation

**Q.** And the XRPD [1, 8]?
**A.** Form G

**Q.** And the “XRPD analysis of the solid following the desorption scan” value [2]?
**A.** consistent with Form C

**Q.** What about the “time to lose enough water to form the anhydrate” value ([2]; at 15% RH during desorption) of the same compound?
**A.** less than 60 minutes

**Q.** What about the “time to gain enough water to form the dihydrate” value ([2]; at 30% RH during adsorption) of the same compound?
**A.** approximately 45 minutes

**Q.** What about the “hydration state in the moisture sorption experiment” value ([2]; during both adsorption and desorption, 25° C.) of the same compound?
**A.** stable dihydrate above 20% RH

**Q.** And the “XRPD after equilibration at ambient laboratory conditions overnight” value ([2]; sample after desorption scan)?
**A.** re-converted to Form A

**Q.** And the “pH, 1 week” value ([3]; DI water suspension, pH (initial) 6.9)?
**A.** 7.2

**Q.** And the “pH, 1 week” value ([3]; Phosphate buffer suspension, pH (initial) 3.2)?
**A.** 3.4

**Q.** And the solubility at 1 week ([3]; aqueous buffer, thermodynamic from solid, Phosphate buffer (20 mM), pH (initial) 3.2, pH 3.4 at 1 week)?
**A.** < 0.1 mg/mL

**Q.** And the solubility at 1 day ([3]; de-ionized water, pH 6.9, thermodynamic from solid, DI water, pH (initial) 6.9, ambient temperature)?
**A.** < 0.1 mg/mL

**Q.** What about the solubility at 1 week ([3]; de-ionized water, thermodynamic from solid, DI water, pH (initial) 6.9, pH 7.2 at 1 week) of the same compound?
**A.** < 0.1 mg/mL

**Q.** And the solubility at 1 day ([3]; pH 3.2, aqueous buffer, thermodynamic from solid, Phosphate buffer (20 mM), pH (initial) 3.2, ambient temperature)?
**A.** < 0.1 mg/mL

**Q.** What about the “XRPD (1 week)” value [3, 9] of the same compound?
**A.** Form A

**Q.** And the “XRPD (1 day)” value [3, 9]?
**A.** Form A

**Q.** And the “XRPD (1 week)” value [3, 10]?
**A.** Form A

**Q.** And the “XRPD (1 day)” value [3, 10]?
**A.** Form A

**Q.** And the “XRPD pattern of dioxane slurry” value [4]?
**A.** mixture of Form A and Form D

**Q.** And the “Karl Fischer (KF) analysis results before and after the one week equilibration” value [5]?
**A.** comparable

**Q.** And the “XRPD after one week in humidity chamber” value [5]?
**A.** consistent with Form A

**Q.** What about the “stability (based on the available characterization data)” value [6] of the same compound?
**A.** stable at ambient conditions
